From publication PMC6961116, “Scaffold-hopping identifies furano[2,3-d]pyrimidine amides as potent Notum inhibitors” (Bioorganic & Medicinal Chemistry Letters, 2020)
“And” between values parts separate entries of the source, which are not always exact repeats. Equal values may be shown once. Read-outs that look alike come from different tables or passages of the source.

Assays:
[1] = mouse liver microsomes; amides 4; cited from earlier work
[2] = tested on: MDCK-MDR1 monolayer; settings: amides 4, cited from earlier work
[3] = Aqueous solubility; assay type: physicochemical; settings: read-out: Aq. solubility
[4] = Hydrolytic stability in citrate buffer; assay type: physicochemical; settings: citrate buffer 0.1 M, pH 4, up to 24 h, UPLC-MS
[5] = biological target: T1, Notum(81–451 Cys330Ser) (Homo sapiens, UniProt Q6P988, C330S); assay: Notum biochemical OPTS assay (carboxylesterase activity); settings: OPTS substrate, 1 h incubation; geometric mean ± s.d.
T1 sequence (Q6P988 81-451 C330S): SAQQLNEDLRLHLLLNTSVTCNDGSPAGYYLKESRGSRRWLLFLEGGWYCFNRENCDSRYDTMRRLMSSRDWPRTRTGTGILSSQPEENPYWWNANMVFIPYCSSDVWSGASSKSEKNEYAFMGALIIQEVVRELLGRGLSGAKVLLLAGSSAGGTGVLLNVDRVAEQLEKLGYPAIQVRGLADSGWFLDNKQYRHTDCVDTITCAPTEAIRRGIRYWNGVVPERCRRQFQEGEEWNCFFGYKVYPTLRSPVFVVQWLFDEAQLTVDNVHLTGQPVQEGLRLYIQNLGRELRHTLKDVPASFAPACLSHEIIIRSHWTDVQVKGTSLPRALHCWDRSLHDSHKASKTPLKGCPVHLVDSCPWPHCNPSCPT

[6] = Mouse pharmacokinetics, single oral dose; assay type: in vivo; settings: p.o. 10 mg/kg
Method: At this point, mouse pharmacokinetic data for 5l was generated in vivo to determine the extent of plasma exposure and to check the correlation of the in vitro ADME data with in vivo outcomes.
Animal Testing Declaration: In vivo mouse pharmacokinetic data was generated at GVK Biosciences, Hyderabad, India. GVK Biosciences is accredited by AAALAC and OLAW for the ethical treatment of animals. All the animal experiments are conducted in accordance with IAEC approved protocols. See: https://www.gvkbio.com/biology-services/in-vivo-pharmacology/

[7] = LogD7.4; assay type: physicochemical; settings: pH 7.4
[8] = tested on: P-gp (MDR1); assay: MDCK-MDR1 cell permeability and efflux; assay type: in vitro ADME; settings: dog
[9] = biological target: T2, Notum (Homo sapiens, UniProt Q6P988, C330S); assay: Notum enzymatic stability (biochemical assay without OPTS substrate); settings: up to 72 h
T2 sequence (Q6P988 81-451 C330S): T1 sequence (Q6P988 81-451 C330S)

[10] = biological target: CYP2C9 (Homo sapiens, UniProt P11712); assay: CYP2C9 inhibition; assay type: in vitro ADME
Chain of CYP2C9 (P11712 whole entry): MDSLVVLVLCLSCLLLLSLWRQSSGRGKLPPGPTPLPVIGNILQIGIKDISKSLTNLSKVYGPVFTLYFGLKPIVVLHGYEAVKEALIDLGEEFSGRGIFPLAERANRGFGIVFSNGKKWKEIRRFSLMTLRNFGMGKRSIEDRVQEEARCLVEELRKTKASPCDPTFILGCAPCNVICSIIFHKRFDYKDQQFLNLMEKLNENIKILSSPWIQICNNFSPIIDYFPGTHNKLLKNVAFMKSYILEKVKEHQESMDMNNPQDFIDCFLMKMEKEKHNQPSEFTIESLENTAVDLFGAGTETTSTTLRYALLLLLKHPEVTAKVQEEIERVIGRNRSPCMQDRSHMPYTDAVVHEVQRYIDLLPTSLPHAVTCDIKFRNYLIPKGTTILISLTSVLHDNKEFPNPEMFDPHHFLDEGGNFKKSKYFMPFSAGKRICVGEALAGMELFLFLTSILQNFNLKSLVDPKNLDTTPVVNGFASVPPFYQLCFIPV

[11] = Mouse plasma stability; assay type: in vitro ADME
Excerpt: However, the ER for 24 was perceived to be within acceptable limits based on established precedent.[22] [table]

[12] = biological target: T3, CYP2B6 (Homo sapiens, UniProt P20813); assay: CYP2B6 inhibition; assay type: in vitro ADME
T3 sequence (P20813 1-491): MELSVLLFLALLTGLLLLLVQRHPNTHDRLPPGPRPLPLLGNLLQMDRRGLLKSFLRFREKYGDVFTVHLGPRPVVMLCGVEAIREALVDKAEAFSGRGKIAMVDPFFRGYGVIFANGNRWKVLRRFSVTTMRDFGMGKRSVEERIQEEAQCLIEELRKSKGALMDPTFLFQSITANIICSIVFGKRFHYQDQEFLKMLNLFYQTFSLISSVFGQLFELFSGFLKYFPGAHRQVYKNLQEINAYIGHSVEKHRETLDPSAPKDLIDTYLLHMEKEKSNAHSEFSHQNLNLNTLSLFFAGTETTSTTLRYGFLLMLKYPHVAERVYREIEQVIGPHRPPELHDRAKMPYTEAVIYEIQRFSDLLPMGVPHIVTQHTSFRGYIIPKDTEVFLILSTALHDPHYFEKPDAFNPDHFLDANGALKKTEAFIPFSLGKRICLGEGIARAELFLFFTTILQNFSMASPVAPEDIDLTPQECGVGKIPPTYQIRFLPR

[13] = biological target: CYP3A4 (Homo sapiens, UniProt P08684); assay: CYP3A4 inhibition; assay type: in vitro ADME
Chain of CYP3A4 (P08684 whole entry): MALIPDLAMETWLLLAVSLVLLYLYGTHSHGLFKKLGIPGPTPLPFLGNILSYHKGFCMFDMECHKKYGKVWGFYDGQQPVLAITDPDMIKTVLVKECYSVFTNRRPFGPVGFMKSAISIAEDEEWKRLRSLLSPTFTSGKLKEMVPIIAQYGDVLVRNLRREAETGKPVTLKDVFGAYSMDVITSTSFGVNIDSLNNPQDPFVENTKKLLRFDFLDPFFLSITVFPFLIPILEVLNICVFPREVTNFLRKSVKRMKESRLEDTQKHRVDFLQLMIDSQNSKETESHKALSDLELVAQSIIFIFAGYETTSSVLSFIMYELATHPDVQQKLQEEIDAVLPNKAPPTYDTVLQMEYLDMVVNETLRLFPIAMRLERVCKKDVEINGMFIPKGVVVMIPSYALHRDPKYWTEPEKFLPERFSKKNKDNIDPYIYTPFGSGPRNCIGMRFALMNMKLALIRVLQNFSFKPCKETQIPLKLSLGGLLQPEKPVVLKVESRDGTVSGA

[14] = biological target: T4, CYP1A2 (Homo sapiens, UniProt P05177); assay: CYP1A2 inhibition; assay type: in vitro ADME
T4 sequence (P05177 1-516): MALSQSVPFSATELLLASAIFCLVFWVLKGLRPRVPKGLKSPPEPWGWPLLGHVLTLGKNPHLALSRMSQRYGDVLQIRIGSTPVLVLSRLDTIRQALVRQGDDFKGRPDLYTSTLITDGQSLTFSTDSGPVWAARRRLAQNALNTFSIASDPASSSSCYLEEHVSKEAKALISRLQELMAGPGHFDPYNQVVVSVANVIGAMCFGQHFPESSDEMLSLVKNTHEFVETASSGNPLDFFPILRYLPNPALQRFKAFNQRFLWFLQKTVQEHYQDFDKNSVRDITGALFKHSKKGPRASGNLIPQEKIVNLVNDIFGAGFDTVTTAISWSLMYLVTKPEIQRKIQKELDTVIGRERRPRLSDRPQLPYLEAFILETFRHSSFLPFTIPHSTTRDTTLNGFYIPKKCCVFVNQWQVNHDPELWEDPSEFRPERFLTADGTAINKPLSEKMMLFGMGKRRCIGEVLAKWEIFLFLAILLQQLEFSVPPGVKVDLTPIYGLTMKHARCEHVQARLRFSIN

[15] = biological target: CYP2D6 (Homo sapiens, UniProt P10635); assay: CYP2D6 inhibition; assay type: in vitro ADME
Chain of CYP2D6 (P10635 whole entry): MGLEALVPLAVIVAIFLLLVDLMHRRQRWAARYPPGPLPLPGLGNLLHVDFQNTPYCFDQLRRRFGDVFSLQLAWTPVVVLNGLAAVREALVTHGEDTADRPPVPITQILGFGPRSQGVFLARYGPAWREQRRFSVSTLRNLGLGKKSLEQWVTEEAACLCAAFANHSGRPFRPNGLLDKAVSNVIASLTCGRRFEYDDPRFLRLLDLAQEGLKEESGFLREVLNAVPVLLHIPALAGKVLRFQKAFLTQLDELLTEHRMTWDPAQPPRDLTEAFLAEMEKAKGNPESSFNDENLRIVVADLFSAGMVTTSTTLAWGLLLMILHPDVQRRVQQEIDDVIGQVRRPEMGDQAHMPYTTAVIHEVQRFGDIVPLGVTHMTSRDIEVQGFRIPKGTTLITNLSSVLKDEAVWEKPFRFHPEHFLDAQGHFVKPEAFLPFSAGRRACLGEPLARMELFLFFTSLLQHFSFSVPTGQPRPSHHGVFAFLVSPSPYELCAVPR

[16] = Metabolic stability in mouse liver microsomes (MLM); assay type: in vitro ADME
[17] = C57BL/6, mouse, po, plasma, male C57BL6 mice
[18] = C57BL/6, mouse, po, brain, male C57BL6 mice

## O=C(CSc1ncnc2c(C3CC3)c(Cl)sc12)N1CCOCC1 [Compound 4c]
[1]
  MLM Cli: >500 µL/min/mg
[2]; A to B direction
  MDCK-MDR1 AB Papp: 40 ×10⁻⁶ cm/s
[2]; B to A direction
  MDCK-MDR1 BA Papp: 38 ×10⁻⁶ cm/s

## Cc1sc2ncnc(SCC(=O)N3CC(=O)N(C)C3)c2c1Cl [Compound 5l]
[3]
  solubility: 77 µg/mL and 215 µM
[4]
  Hydrolytic stability: only parent was detected
[5]
  IC50: 0.0024 ± 0.0004 µM
[6]; [17]
  Cmax: 120 ng/mL
[6]; C57BL/6, mouse, po, plasma, male C57BL6 mice, read-out: AUC(0-inf)
  AUC(0-inf): 70 ng·h/mL
[7]
  logD: 1.8
[8]; MDCK-MDR1, A to B direction, read-out: MDCK-MDR1 AB Papp
  Papp: 36 ×10⁻⁶ cm/s
[8]; MDCK-MDR1, B to A direction, read-out: MDCK-MDR1 BA Papp
  Papp: 42 ×10⁻⁶ cm/s
[9]
  Notum enzymatic stability: only parent was detected

## Cc1c(C(F)(F)F)oc2ncnc(SCC(=O)N3CC(=O)N(C)C3)c12 [Compound 24, 3-Methyl-1-(2-((5-methyl-6-(trifluoromethyl)furo[2,3-d]pyrimidinyl-4-yl)thio)acetyl)imidazolin-4-one]
[3]
  solubility: 45 µg/mL and 120 µM
[10]
  IC50: > 30 µM
[11]; after 120 min
  Mouse plasma stability (in words): no degradation observed
[11]; mouse, plasma, 120 min
  remaining at 2 h: 110%
[12]
  IC50: > 30 µM
[13]
  IC50: > 30 µM
[14]
  IC50: > 30 µM
[15]
  IC50: > 30 µM
[6]; [18]
  Cmax at 24 h: 1210 ng/g
  Tmax: 30 min
[6]; [17]
  AUC(0-inf) at 24 h: 5490 ng·h/mL
  AUC(0-t) at 24 h: 5390 ng·h/mL
  Cmax at 24 h: 3850 ng/mL
  Tmax: 30 min
[6]; brain, male C57BL6 mice
  AUC(0-inf): 1610 ng·h/g
  AUC(0-t): 1550 ng·h/g
[6]; mouse, free drug
  Cmax[brain] (free drug): ≈ 0.5 μM
  Cmax[plasma] (free drug): ≈ 2.2 μM
[16]; Table 5
  MLM Cli: 6.9 μL/min/mg protein
[16]; mouse liver microsomes
  MLM Cli: 6.9 µL/min/mg
  Metabolic stability in MLM (in words): high metabolic stability
